In ChEMBL document CHEMBL1139353, “Discovery of a new class of potential multifunctional atypical antipsychotic agents targeting dopamine D3 and serotonin 5-HT1A and 5-HT2A receptors: design, synthesis, and effects on behavior” (J Med Chem, 2009):
Calls of active or inactive are those of the source. The rule behind the calls is not given here.

What was measured:
[1] = target: Voltage-gated inwardly rectifying potassium channel KCNH2 (Homo sapiens, UniProt Q12809)
Description: Binding affinity to human ERG expressed in HEK293 cells by whole cell patch clamp method

Mus musculus [2] = species on record: Mus musculus; settings: in vivo, 0.5 h
Description: Sedative activity in NMRI mouse assessed as reduction in spontaneous locomotor activity administered 30 mins prior to testing

Mus musculus [3] = species on record: Mus musculus; assay: animal or person; settings: NMRI
Description: Antipsychotic activity in NMRI mouse assessed as reduction in phencyclidine-induced locomotor activity administered 30 mins prior to testing measured for 60 mins

Mus musculus [4] = species on record: Mus musculus; settings: in vivo, sc, 1 h
Description: Toxicity in sc dosed NMRI mouse assessed as cataleptogenic potential administered 30 mins prior to testing measured every 15 mins for 60 mins by horizontal bar test

Mus musculus [5] = species on record: Mus musculus; assay: animal or person; settings: NMRI; remark: listed apart in the source
Description: Antipsychotic activity in NMRI mouse assessed as reduction in methamphetamine-induced locomotor activity administered 30 mins prior to testing measured for 60 mins

D(3) dopamine receptor = D(3) dopamine receptor (Homo sapiens, UniProt P35462); assay: biochemical
Chain of D(3) dopamine receptor (P35462 whole entry): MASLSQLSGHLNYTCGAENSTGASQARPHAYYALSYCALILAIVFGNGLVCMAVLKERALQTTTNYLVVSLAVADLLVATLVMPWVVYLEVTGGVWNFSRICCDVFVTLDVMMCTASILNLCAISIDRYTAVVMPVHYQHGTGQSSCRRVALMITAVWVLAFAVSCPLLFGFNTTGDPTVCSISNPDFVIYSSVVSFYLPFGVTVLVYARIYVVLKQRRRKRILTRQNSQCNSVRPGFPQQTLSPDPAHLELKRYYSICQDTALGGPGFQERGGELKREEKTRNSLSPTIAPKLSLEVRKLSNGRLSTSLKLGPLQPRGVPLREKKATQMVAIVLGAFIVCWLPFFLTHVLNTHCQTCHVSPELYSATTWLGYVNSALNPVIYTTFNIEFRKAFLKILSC
Description: Displacement of [3H]7OH-DPAT from dopamine D3 receptor expressed in Sf9 cells by scintillation spectrometry

[6] = target: T1, 5-hydroxytryptamine receptor 1A (Rattus norvegicus, UniProt P19327); assay: biochemical
T1 sequence (P19327 whole entry): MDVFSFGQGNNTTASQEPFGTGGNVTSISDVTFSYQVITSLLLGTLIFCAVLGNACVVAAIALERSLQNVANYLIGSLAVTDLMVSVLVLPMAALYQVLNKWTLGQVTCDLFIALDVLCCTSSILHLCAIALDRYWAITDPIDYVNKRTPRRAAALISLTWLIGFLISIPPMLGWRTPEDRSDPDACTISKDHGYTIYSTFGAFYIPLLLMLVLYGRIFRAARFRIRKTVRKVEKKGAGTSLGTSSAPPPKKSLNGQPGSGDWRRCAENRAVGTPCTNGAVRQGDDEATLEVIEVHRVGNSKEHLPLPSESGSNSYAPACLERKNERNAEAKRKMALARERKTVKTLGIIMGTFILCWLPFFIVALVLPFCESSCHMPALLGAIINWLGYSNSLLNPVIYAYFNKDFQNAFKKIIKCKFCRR
Description: Displacement of [3H]8OH-DPAT from 5HT1A receptor in CRL:CD(SD)BR-COBS rat hippocampus by scintillation spectrometry

[7] = target: 5-hydroxytryptamine receptor 2A (Rattus norvegicus, UniProt P14842)
Chain of 5-hydroxytryptamine receptor 2A (P14842 whole entry): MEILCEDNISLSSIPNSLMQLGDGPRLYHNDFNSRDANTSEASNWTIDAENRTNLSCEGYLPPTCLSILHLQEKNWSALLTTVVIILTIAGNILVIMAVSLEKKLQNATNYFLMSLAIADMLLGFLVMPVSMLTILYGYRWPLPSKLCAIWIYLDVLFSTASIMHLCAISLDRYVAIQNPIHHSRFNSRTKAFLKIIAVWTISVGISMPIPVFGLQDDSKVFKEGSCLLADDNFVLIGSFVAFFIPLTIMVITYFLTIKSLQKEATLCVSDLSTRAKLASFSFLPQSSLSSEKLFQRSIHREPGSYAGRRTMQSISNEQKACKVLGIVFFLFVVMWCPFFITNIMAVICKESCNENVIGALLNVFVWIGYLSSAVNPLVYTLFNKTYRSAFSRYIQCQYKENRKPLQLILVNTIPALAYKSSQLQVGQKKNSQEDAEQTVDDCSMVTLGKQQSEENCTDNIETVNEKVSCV
Description: Displacement of [3H]ketanserin from 5HT2A receptor in CRL:CD(SD)BR-COBS rat cortex by scintillation spectrometry

D(1A) dopamine receptor = D(1A) dopamine receptor (Rattus norvegicus, UniProt P18901)
Chain of D(1A) dopamine receptor (P18901 whole entry): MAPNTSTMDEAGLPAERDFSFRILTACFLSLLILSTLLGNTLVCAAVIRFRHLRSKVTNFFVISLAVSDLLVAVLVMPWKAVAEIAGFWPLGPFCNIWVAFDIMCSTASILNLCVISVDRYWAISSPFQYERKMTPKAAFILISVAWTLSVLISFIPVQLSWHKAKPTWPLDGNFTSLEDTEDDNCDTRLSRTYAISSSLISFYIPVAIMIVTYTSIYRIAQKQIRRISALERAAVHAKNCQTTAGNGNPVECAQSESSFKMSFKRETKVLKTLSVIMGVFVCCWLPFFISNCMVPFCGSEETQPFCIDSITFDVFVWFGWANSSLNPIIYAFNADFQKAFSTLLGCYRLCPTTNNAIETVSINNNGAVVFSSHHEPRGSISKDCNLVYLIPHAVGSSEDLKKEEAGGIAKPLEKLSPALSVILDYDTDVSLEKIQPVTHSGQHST
Description: Displacement of [3H]SCH23390 from dopamine D1 receptor in CRL:CD(SD)BR-COBS rat striatum by scintillation spectrometry

[8] = target: D(1A) dopamine receptor (Rattus norvegicus) (UniProt P18901); assay: Displacement of [3H]SCH23390 from dopamine D1 receptor in CRL:CD(SD)BR-COBS rat striatum at 100 uM by scintillation spectrometry
Chain of D(1A) dopamine receptor (Rattus norvegicus) (P18901 whole entry): as above

Chain of Voltage-gated inwardly rectifying potassium channel KCNH2 (Q12809 whole entry): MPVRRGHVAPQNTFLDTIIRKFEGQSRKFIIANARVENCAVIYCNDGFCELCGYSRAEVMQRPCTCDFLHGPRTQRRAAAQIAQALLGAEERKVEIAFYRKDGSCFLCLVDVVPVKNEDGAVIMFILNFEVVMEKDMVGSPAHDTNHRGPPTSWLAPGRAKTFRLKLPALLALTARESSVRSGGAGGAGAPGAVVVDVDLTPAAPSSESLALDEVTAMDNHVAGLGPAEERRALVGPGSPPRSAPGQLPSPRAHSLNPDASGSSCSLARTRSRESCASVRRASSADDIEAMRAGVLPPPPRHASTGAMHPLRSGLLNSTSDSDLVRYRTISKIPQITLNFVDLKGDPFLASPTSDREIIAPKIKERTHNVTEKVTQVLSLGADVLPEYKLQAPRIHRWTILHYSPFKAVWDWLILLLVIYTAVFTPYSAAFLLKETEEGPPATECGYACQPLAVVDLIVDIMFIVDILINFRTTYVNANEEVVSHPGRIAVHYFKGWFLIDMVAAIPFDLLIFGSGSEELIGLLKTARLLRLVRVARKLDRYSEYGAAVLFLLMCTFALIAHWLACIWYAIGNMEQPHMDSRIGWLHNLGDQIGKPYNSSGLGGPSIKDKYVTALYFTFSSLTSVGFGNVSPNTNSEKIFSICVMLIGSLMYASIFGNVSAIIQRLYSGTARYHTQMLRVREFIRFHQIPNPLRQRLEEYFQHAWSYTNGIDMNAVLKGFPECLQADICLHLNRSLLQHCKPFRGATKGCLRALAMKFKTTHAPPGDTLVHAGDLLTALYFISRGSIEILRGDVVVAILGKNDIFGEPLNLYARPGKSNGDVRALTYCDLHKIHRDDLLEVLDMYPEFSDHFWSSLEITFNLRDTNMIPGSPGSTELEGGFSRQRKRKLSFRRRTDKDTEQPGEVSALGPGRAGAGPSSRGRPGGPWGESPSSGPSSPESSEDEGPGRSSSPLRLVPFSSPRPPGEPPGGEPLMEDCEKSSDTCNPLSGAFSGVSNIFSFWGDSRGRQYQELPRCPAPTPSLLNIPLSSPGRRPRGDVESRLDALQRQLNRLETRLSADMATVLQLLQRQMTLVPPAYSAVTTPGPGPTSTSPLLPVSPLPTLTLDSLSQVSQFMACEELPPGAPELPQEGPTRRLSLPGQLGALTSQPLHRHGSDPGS

SMILES	Ki [1] [nM]	ED50 (Mus musculus [2]) [mg/kg]	ED50 (Mus musculus [3]) [mg/kg]	ED50 (Mus musculus [4]) [mg/kg]	ED50 (Mus musculus [5]) [mg/kg]	Ki (D(3) dopamine receptor) [nM]	Ki [6] [nM]	Ki [7] [nM]	Ki (D(1A) dopamine receptor) [nM]	Activity [8]
Cc1cc2c(s1)Nc1ccccc1N=C2N1CCN(C)CC1 [OLANZAPINE]	36000	–	–	–	–	–	–	–	–	–
CN1CCN(C2=Nc3cc(Cl)ccc3Nc3ccccc32)CC1 [CLOZAPINE]	–	2.4	1.1	> 30	2.5	–	–	–	–	–
COc1cccc2cc3n(c12)CCN(CCCCN1CCn2c(cc4ccccc42)C1=O)C3	260	–	–	–	–	8.6	33	200	> 10000	–
O=C(NCCCCN1CCN(c2ccc(Cl)cc2Cl)CC1)c1cc2cc(Cl)ccc2[nH]1	–	–	> 30	–	–	0.38	–	–	–	–
O=C1c2cc3ccccc3n2CCN1CCCCN1CCN(c2ccc(Cl)cc2Cl)CC1	–	–	–	–	–	3.2	–	300	4320	–
O=C1c2cc3ccccc3n2CCN1CCCCN1CCN(c2cccc(Cl)c2Cl)CC1	200	> 30	> 3	–	3.7	0.105	9.3	83	4370	–
N#Cc1cccc(N2CCN(CCCCN3CCn4c(cc5ccccc54)C3=O)CC2)c1	–	–	–	–	–	3.7	–	389	> 10000	–
O=C(NCCCCN1CCN(c2cccc(Cl)c2Cl)CC1)c1cc2ccccc2cn1	200	–	–	–	–	0.099	5	41	4600	–
O=C(NCCCCN1CCN(c2ccc(Cl)cc2Cl)CC1)c1cc2ccccc2[nH]1	–	–	> 30	–	–	–	–	–	–	–
N#Cc1cccc(N2CCN(CCCCNC(=O)c3cc4ccccc4o3)CC2)c1	390	–	–	–	–	0.54	–	–	> 10000	–
COc1cccc2c1C1CCN(CCCCNC(=O)C3=Cc4ccccc4CN3)CC1=N2 (stereo not given)	–	–	–	–	–	6	118	149	> 10000	–
Clc1cccc(N2CCN(CCCCCOc3cc4ccccc4cn3)CC2)c1Cl	210	> 30	> 10	–	> 10	0.14	18	57	–	–
COc1cccc2cc3n(c12)CCN(CCCCNC(=O)C1=Cc2ccccc2CN1)C3	1840	–	–	–	–	33.5	28	164	> 10000	–
Clc1cccc(N2CCN(CCCCOc3ccc4cccnc4c3)CC2)c1Cl	–	–	–	–	–	8.2	4	127	–	inactive
Clc1cccc(N2CCN(CCCCOc3cc4ccccc4cn3)CC2)c1Cl	160	–	–	–	–	32.9	24.2	123	–	–
O=C(CCCN1CCC(O)(c2ccc(Cl)cc2)CC1)c1ccc(F)cc1 [HALOPERIDOL]	–	0.08	0.09	0.19	–	–	–	–	–	–
O=C(NCCCCN1CCN(c2cccc(Cl)c2)CC1)c1cc2ccccc2cn1	300	14	6.7	–	4.2	0.27	14.7	23.4	5500	–
